Experimental data taken from patent publication US20240140970A1, “A […], AND PREPARATION METHOD AND USE THEREOF” (ASCENTAWITS PHARMACEUTICALS, LTD., priority 2021, published 2024).
“And” between values parts separate entries of the source, which are not always exact repeats. Equal entries are not always repeated.

Tests used:
[1] = Stability of aqueous solution of AST-2660-D8-sodium salt by 31P-NMR with HMPA as internal standard; assay type: physicochemical
Description: This example is to study the stability of the sample solution by detecting the content of the aqueous solution of AST-2660-D8-sodium salt: ^31P-NMR was used for detection, and the content of the aqueous solution of AST-2660-D8-sodium salt was characterized by comparing the area ratio of ^31peak of HMPA as an internal standard to that of ^31P peak of AST-2660-D8 sodium salt within 48 hours, thereby determining whether the mass of the sample solution was reduced as a result of degradation.
^31P-NMR of the samples was run on an NMR instrument.
HMPA (21.8 mg, 0.1217 mmol) was dissolved in water (2.20 mL), wherein the total mass was […], and the concentration of HMPA was 5.72×10^−5 mmol/mg. A solution of AST-2660-D8-sodium salt (588 mg, about 0.5 mL) and a solution of HMPA (293 mg, 1.676×10^−2 mmol) were mixed together as samples for 31 P-NMR analysis under −20° C. storage conditions at different times. The ratio of integrated peak area of the nuclear magnetic peak (about 29.874 ppm) for the corresponding HMPA to that of the nuclear magnetic peak (about 24.491 ppm) for AST-2660-D8-sodium salt in the nuclear magnetic spectrum was calculated, and the integrated peak of the nuclear magnetic peak for HMPA was set as 1.
According to the same operation, a sample with another concentration was formulated for detection, and ^31P-NMR analysis was performed under −78° C. storage conditions at different times. […]

[2] = Stability of AST-2660 and AST-2660-D8 methanol stock/working solutions (LC-MS/MS peak area, stored vs fresh solution); assay type: physicochemical
Description: The relevant parameters of the LC-MS/MS experimental method are provided.
AST-2660 (prepared by referring to Example 1 and selecting non-deuterated raw materials) standard stock solution (methanol solution with a concentration of 1.0 mg/ml): an appropriate amount of AST-2660 was taken, added with an appropriate amount of methanol, diluted and mixed thoroughly to obtain 1.0 mg/ml of solution.
A 100 μL standard stock solution of AST-2660 was taken, added with 9900 μL of methanol, diluted and mixed thoroughly to obtain 10.0 μg/ml of calibration standard working solution.
[…] A 20 μL of internal standard stock solution of AST-2660-D8 was taken, added with 9980 μL methanol, diluted and mixed thoroughly to obtain 100 ng/ml of internal standard working solution.
It can be seen from Table 10 that the accuracy of the stability of the AST-2660 working solution and the internal standard AST-2660-D8 working solution was within ±8.1%, and the precision was less than 5.5%. Stability analysis criteria: the difference between the storage stable solution and the freshly prepared solution must be within ±10.0%, and the CV of each replicate experiment must not be greater than 10.0%. Therefore, both AST-2660 and AST-2660-D8 (internal standard) working solutions had good stability and met the requirements under various storage conditions.

[3] = 100 ng/ml methanol solution, fresh stock solution, t = 0
[4] = 100 ng/ml methanol solution, working solution stored at −70° C., t = 26 days
[5] = 1 mg/ml methanol solution, fresh stock solution, t = 0
[6] = 1 mg/ml methanol solution, stock solution stored at −70° C., t = 26 days

[2H]C1([2H])N(P(=O)([O-])N2C([2H])([2H])C2([2H])[2H])C1([2H])[2H].[Na+] [AST-2660-D8 sodium salt]
concentration of AST-2660-D8 sodium salt ([1]; aqueous solution after storage at −20° C. for 6 months): 1370 µg/mL
concentration of AST-2660-D8 sodium salt ([1]; aqueous solution after storage at −78° C. for 6 months): 1710 µg/mL
decrease of concentration ([1]; aqueous solution, 6 months of storage at −20° C.): 27.5%
decrease of concentration ([1]; aqueous solution, 6 months of storage at −78° C.): 9.5%
concentration of AST-2660-D8 sodium salt ([1]; aqueous solution, day 0): 1890 µg/mL
stability of solution (in words) ([1]; stored at −20 to −78° C. for 48 hours (2 days)): stable
RE (% difference, peak area stock vs fresh solution) ([2]; 100 ng/ml AST-2660-D8 methanol working solution, 26 days at −70° C.): RE: 0.9%
Peak area (AST-2660-D8), Mean value [2, 3]: 3282130
Peak area (AST-2660-D8), single replicates [2, 3]: 3253860 and 3323720 and 3204960 and 3285390 and 3314390 and 3310460
Deviation % over fresh stock solution [2, 4]: 0.9%
Peak area (AST-2660-D8), Mean value [2, 4]: 3311013
Peak area (AST-2660-D8), single replicates [2, 4]: 3289570 and 3332520 and 3294750 and 3307750 and 3306110 and 3335380
Peak area (AST-2660-D8), Mean value [2, 5]: 548278.5
Peak area (AST-2660-D8), single replicates [2, 5]: 574450 and 589227 and 535059 and 530296 and 537317 and 523322
Deviation % over fresh stock solution [2, 6]: −2.0%
Peak area (AST-2660-D8), Mean value [2, 6]: 537342.5
Peak area (AST-2660-D8), single replicates [2, 6]: 539154 and 532283 and 520321 and 550350 and 532469 and 549478
stability of methanol solution (in words) ([2]; stored for 26 days at −70° C.): strong stability
